Experimental data from patent US9242966B2, “Phthalazines as potassium ion channel inhibitors” (BRISTOL-MYERS SQUIBB COMPANY, priority 2013, dated 2016).

Assays:
[1] = In vivo rat PK evaluation of pro-drug cleavage to parent; conditions: all doses administered PO, parent = Example 1
Excerpt: (§1) Example 16 is a prodrug of Example 1.

[2] = Rat PO PK with pH modulators (Pentagastrin or Famotidine pre-treatment); format: in vivo
Excerpt: as §1

human KV 1.5 = biological target: T1, human KV 1.5 (Homo sapiens, UniProt P22460); assay: Block of IKur current in patch clamped L-929 cells expressing human Kv1.5; format: cell-based; conditions: L929, 0.3 μM; patch clamped mammalian L-929 cells stably expressing human Kv1.5 (IKur); read-out: KV1_5% Inh L929 @0.3 μM
T1 construct: expressed in transfected cells; host or cells: mammalian L-929 cells (mouse fibroblast line)
T1 sequence (P22460 whole entry): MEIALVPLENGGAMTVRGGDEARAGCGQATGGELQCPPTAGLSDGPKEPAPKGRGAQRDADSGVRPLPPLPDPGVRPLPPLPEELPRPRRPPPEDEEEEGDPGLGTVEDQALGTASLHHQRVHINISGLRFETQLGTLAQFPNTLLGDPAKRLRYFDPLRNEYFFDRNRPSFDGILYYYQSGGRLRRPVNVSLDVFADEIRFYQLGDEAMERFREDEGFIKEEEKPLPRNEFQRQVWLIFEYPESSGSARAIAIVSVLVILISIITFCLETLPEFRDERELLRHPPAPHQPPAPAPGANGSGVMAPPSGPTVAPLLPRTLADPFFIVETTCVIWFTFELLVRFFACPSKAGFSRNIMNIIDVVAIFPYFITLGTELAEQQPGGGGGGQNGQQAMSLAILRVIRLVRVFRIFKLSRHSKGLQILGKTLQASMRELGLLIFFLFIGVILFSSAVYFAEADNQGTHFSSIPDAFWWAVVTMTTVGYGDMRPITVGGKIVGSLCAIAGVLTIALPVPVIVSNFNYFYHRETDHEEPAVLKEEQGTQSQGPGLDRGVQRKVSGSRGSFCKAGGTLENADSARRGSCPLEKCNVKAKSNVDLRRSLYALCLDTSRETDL
Excerpt: 1. Synders, D. J.; et al., “A rapidly activating and slowly inactivating potassium channel cloned from human heart: functional analysis after stable mammalian cell culture expression”, J. Gen. Physiol., 101:513-543 (1993). […]

Row | SMILES | Effect of pH modulators on PO PK (pH dependent absorption) [2] | inhibition at 0.3 µM (human KV 1.5) | Pro-drug cleavage to the respective parent compound [1]
1 | O=P(O)(O)NS(=O)(=O)c1cncc(-c2nnc(NCc3ccccn3)c3c(-c4ccccc4)cccc23)c1 [Example 16, 5-(5-Phenyl-4-(pyridin-2-ylmethylamino)phthalazin-1-yl)pyridin-3-ylsulfonylphosphoramidic acid] | mitigated the pH dependent absorption |  | Pro-drug cleavage to the respective parent compound was demonstrated
2 | C[C@H](Nc1nnc(-c2cncc(S(N)(=O)=O)c2)c2cccc(-c3ccccc3)c12)c1ccccc1 [Example 43, (S)-5-(5-Phenyl-4-((1-phenylethyl)amino)phthalazin-1-yl)pyridine-3-sulfonamide] |  | 86.8% | 
3 | O=C(NCc1ccc(OC(F)(F)F)cc1)c1cncc(-c2nnc(NCc3ccccn3)c3c(-c4ccccc4)cccc23)c1 [Example 44, 5-(5-Phenyl-4-((pyridin-2-ylmethyl)amino)phthalazin-1 yl)-N-(4-(trifluoromethoxy)benzyl)nicotinamide] |  | 96.5% | 
4 | Cc1cnc(CNC(=O)c2cncc(-c3nnc(NCc4ccccn4)c4c(-c5ccccc5)cccc34)c2)cn1 [Example 45, N-((5-Methylpyrazin-2-yl)methyl)-5-(5-phenyl-4-((pyridin-2-ylmelhyl)amino)phthalazin-1-yl) nicotinamide] |  | 75.6% | 

Continued, in another order:

Row | Effect of pH modulators on PO PK (pH dependent absorption) [2] | inhibition at 0.3 µM (human KV 1.5) | SMILES | Pro-drug cleavage to the respective parent compound [1]
5 |  | 51.1% | COCCNC(=O)c1cncc(-c2nnc(NCc3ccccn3)c3c(-c4ccccc4)cccc23)c1 [Example 46, N-(2-Methoxyethyl)-5-(5-phenyl-4-((pyridin-2-ylmethyl)amino)phthalazin-1-yl)nicotinamide] | 
6 |  | 96.4% | CC(C)(C)CCNC(=O)c1cncc(-c2nnc(NCc3ccccn3)c3c(-c4ccccc4)cccc23)c1 [Example 47, N-(3,3-Dimcthylbutyl)-5-(5-phenyl-4-((pyridin-2-ylmethyl)amino)phthalazin-1-yl)nicotinamide] | 
7 |  | 71.1% | CC(C)OCCNC(=O)c1cncc(-c2nnc(NCc3ccccn3)c3c(-c4ccccc4)cccc23)c1 [Example 48, N-(2-Isopropoxyethyl)-5-(5-phenyl-4-((pyridin-2-ylmethyl)amino)phthalazin-1-yl)nicotinamide] | 
8 |  | 93.9% | O=C(N[C@H]1CCC[C@@H]1OCc1ccccc1)c1cncc(-c2nnc(NCc3ccccn3)c3c(-c4ccccc4)cccc23)c1 [Example 49] | 
9 |  | 98.6% | O=C(NCCc1ccccc1F)c1cncc(-c2nnc(NCc3ccccn3)c3c(-c4ccccc4)cccc23)c1 [Example 50, N-(2-Fluorophenethyl)-5-(5-phenyl-4-((pyridin-2-ylmethyl)amino)phthalazin-1-yl)nicotinamide] | 
